Experiments:
[1] = target: T1, C-src kinase (Homo sapiens, UniProt P12931); experiment: C-src kinase assay (poly GluTyr substrate); type: biochemical; details: read-out: C-src TK IC50
T1 construct: made in house; host or cells: baculovirus infected insect cells

[2] = target: T2, Human EGF receptor tyrosine kinase (Homo sapiens, UniProt P00533); experiment: EGF receptor tyrosine kinase enzyme assay (substrate peptide phosphorylation); type: biochemical; details: read-out: EGF-FL IC50
T2 construct: Human EGF receptor tyrosine kinase was isolated from A431 epidermoid carcinoma cells; endogenous in cells; host or cells: A431 epidermoid carcinoma cells

[3] = system: HCT-8; experiment: Soft agar colony formation, human colon adenocarcinoma cells; type: cell-based; details: HCT-8, 336 h, read-out: Inhibition of Human Colon Adenocarcinoma IC50, HCT-8
Method: (§1) Three such human cell lines were identified as HCT-8, SW-620, and HT-29. In a typical assay, the cells are suspended in 0.3% soft agar containing an invention compound at various concentration levels, and are plated into six-well plates, each plate containing a 1% agar plug. The cell plates are incubated at 37°C in a humidified carbon dioxide (5%) incubator, generally for 2 weeks. At the end of the incubation period, colonies of cells are detected by staining the wells with 1 mg/mL of p-iodonitrotetrazolium violet. The cells are counted on an optical colony counter. […] TABLE III. Inhibition of Human Colon Adenocarcinoma IC50 (µM)

[4] = system: HT-29; experiment: as above; type: cell-based; details: HT-29, 336 h, read-out: Inhibition of Human Colon Adenocarcinoma IC50, HT-29
Method: as §1

[5] = system: SW-620; experiment: as above; type: cell-based; details: SW-620, 336 h, read-out: Inhibition of Human Colon Adenocarcinoma IC50, SW-620
Method: as §1

[6] = system: transplanted tumors; experiment: Transplanted tumor assay; type: in vivo; details: F1 hybrid mice; compound generally by infusion by tail tether
Method: F1 hybrid mice were used in the assay. The mice receive ascites fluid or dilutions of tumor brei on Day 0. A sample of the inocula is incubated in thioglycolate media as a check for gross contamination of the tumor material. After all test animals are inoculated with tumors, they are randomized for the assay. Control animals receive vehicle, while treated animals receive an invention compound dissolved in the vehicle, generally by infusion by tail tether. All animals are monitored daily for acute toxicity and other clinical signs. Survival is checked daily for the control group and treated group. The assay generally is continued for 60 days, at which time all surviving animals are euthanized.

T1 sequence (P12931 whole entry): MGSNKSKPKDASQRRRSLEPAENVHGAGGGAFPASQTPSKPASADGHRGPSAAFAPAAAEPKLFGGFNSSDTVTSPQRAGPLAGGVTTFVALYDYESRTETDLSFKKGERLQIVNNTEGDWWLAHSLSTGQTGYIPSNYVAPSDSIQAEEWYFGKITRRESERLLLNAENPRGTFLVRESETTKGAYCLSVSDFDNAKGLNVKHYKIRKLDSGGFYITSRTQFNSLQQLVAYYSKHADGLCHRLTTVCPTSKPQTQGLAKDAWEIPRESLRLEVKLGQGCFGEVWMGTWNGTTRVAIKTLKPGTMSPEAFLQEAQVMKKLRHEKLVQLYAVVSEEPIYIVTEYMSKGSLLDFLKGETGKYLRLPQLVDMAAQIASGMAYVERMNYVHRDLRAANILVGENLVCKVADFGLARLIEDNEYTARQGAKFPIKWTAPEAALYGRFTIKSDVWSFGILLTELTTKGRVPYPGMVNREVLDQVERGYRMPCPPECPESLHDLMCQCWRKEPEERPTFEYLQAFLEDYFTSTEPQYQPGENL
T2 sequence (P00533 25-1210): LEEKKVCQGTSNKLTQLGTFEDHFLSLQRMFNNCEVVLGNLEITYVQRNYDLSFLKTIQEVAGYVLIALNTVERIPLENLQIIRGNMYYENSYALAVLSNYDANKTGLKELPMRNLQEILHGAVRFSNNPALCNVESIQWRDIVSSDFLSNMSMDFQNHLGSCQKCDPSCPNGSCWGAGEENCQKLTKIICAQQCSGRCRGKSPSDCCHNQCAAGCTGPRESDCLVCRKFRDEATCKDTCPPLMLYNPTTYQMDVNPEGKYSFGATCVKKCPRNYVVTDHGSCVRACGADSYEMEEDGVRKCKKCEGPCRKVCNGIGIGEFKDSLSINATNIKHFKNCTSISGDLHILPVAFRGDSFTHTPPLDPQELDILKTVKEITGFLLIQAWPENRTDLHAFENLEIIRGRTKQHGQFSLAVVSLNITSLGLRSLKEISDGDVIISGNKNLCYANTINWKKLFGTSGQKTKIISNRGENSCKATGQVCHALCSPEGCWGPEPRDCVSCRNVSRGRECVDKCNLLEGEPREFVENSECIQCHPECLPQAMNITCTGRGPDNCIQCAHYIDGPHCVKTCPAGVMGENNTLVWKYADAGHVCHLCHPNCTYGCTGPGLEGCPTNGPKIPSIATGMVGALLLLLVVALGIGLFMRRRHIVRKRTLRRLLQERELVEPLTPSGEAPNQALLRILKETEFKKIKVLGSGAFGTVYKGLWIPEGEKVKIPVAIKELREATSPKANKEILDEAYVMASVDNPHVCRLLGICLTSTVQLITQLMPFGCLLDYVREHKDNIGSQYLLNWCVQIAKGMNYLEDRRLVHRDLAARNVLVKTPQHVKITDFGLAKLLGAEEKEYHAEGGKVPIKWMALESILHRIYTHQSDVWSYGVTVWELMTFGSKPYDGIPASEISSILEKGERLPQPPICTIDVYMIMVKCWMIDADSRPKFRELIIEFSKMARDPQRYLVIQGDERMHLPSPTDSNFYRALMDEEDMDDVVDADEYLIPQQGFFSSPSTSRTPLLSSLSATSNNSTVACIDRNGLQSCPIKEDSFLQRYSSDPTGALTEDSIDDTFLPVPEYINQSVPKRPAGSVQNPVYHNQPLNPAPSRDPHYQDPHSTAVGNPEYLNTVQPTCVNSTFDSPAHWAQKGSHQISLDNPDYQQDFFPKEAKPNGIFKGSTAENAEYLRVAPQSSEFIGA

Cn1c(=O)c(-c2c(Cl)cccc2Cl)cc2cnc(Nc3ccccc3)nc21 [Example 54, 6-(2,6-Dichlorophenyl)-8-methyl-2-phenylamino-8H-pyrido[2,3-d]pyrimidin-7-one]
IC50 [1]: 24 nM | IC50 [2]: 78 nM | IC50 [3]: 520 nM | IC50 [4]: 490 nM | IC50 [5]: 140 nM | life span of animals infected with transplanted tumors [6]: increased the life span

— patent EP0823908B1, “PYRIDO[2,3-d]PYRIMIDINES FOR INHIBITING PROTEIN TYROSINE KINASE MEDIATED [sequence] PROLIFERATION” (Warner-Lambert Company LLC, priority 1995, dated 1996)
